Like-named read-outs stand apart in the source and are kept apart here.
Tests used:
[1] = human, in vivo
Protocol: (§1) The absorption of iron was established by collection of venous blood samples collected by hypodermic syringe and clotted at room temperature for one hour in silicone coated glass tubes. The tubes were centrifuged at 4,000 g for 30 minutes at 4° C. to isolate the serum which is removed and stored at -20° C. The serum samples were assayed for serum iron via spectrophotometry using ferrozine reagent.
(§2) The tests were conducted in healthy menstruating female volunteers 21 to 45 years of age having normal hemoglobin and hematocrit valves. The subjects fasted overnight. Fifteen to 24 subjects were used in each study. Each study was conducted as a randomized crossover trial with the composition being administered at 8 a.m. at 3 to 4 day intervals. Blood was first taken in the fasting state. Then the preparation was administered using 50 ml of deionized water and the subjects remained fasting until the final blood sample was obtained. Serum iron levels were assayed in duplicate on a blind basis.
(§3) All valves were corrected using this valve for diurnal variation. Values for iron absorption were calculated from the increases in serum iron concentration measured 2 to 6 hours after iron ingestion.
(§4) In each case, the quantities of mineral stated are on the basis of the elemental metal as opposed to the weight of the entire salt.
(§5) This study involved 15 female subjects of child bearing age.
(§6) Again, 15 females of child bearing age were studied using ferrous fumarate alone and in combinations of calcium sulfate (CS), calcium carbonate (CC) and magnesium oxide (MX). The study involved 15 females of child bearing age with data obtained three hours after oral ingestion.
(§7) The data were obtained 3 hours after oral ingestion.

[2] = Iron absorption in healthy menstruating female volunteers (serum iron after oral ingestion, randomized crossover; Studies I-IV); details: 3 hours after oral ingestion; for effect of co-administered mineral salt on iron absorption: Study II, co-administered with ferrous fumarate
Protocol: as §1, §2, §3, §4, §5, §6, §7

SMILES: O=C([O-])/C=C/C(=O)[O-].[Fe+2] [Ferrous fumarate, ferrous fumarate, reference compound]
- Calculated mean values for iron absorption, Average [1]: 8.1 mg

SMILES: [O]=[Mg] [magnesium oxide]
- effect of co-administered mineral salt on iron absorption ([1]; po): additive inhibitory effects on iron absorption
- effect of mineral component on bioavailability of the iron supplement ([1]; po): depressant effects

SMILES: O=C(O)O [calcium carbonate]
- effect of co-administered mineral salt on iron absorption [2]: additive inhibitory effects on iron absorption
- effect of mineral component on bioavailability of the iron supplement ([2]; Study III, mineral components of the formulations): depressant effects

SMILES: O=S(=O)([O-])[O-].[Ca+2] [Plaster of paris, calcium sulfate]
- effect of co-administered mineral salt on iron absorption [2]: does not seem to be inhibitory

— patent US4431634A, “Prenatal iron supplements” (American Cyanamid Company, priority 1981, dated 1984)
